Data taken from ChEMBL document CHEMBL1201862, “PubChem BioAssay data set” (2004).
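Compound exposure: 48 hours, 5 concentrations, 96-well plates. GI50 marks 50% less growth.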 Activity calls are given as the source filed them. Cut-off read from the data, not from the text of the source: active = GI50 up to about 1.1 µM and inactive = higher.

Assays:
Experiment in all cases: NCI anticancer screen, dose series, 48 h
786-0 = test system: 786-0
CCRF-CEM = test system: CCRF-CEM
DU-145 = test system: DU-145
HCC 2998 = test system: HCC 2998
HOP-62 = test system: HOP-62
HOP-92 = test system: HOP-92
Hs-578T = test system: Hs-578T
KM12 = test system: KM12
MDA-MB-231 = test system: MDA-MB-231
MOLT-4 = test system: MOLT-4
NCI-H226 = test system: NCI-H226
OVCAR-3 = test system: OVCAR-3
OVCAR-4 = test system: OVCAR-4
SF-268 = test system: SF-268
SF-295 = test system: SF-295
SK-MEL-28 = test system: SK-MEL-28
SN12C = test system: SN12C
SR = test system: SR
SW-620 = test system: SW-620
A498 = test system: A498

Structure (SMILES)	GI50 (786-0)	GI50 (CCRF-CEM)	GI50 (DU-145)	GI50 (HCC 2998)	GI50 (HOP-62)	GI50 (HOP-92)	GI50 (Hs-578T)	GI50 (KM12)	GI50 (MDA-MB-231)	GI50 (MOLT-4)	GI50 (NCI-H226)	GI50 (OVCAR-3)	GI50 (OVCAR-4)	GI50 (SF-268)	GI50 (SF-295)	GI50 (SK-MEL-28)	GI50 (SN12C)	GI50 (SR)	GI50 (SW-620)	GI50 (A498)
CCN(CC)CCCn1c(=O)c2ccccc2n2c3c(=O)n(C)c(=O)n(C)c3nc12	2.21 µM (inactive)	3.03 µM (inactive)	1.57 µM (inactive)	8.95 µM (inactive)	2.77 µM (inactive)	3.9 µM (inactive)	14 µM (inactive)	4.63 µM (inactive)	13.8 µM (inactive)	0.619 µM (active)	2.7 µM (inactive)	14.4 µM (inactive)	6.95 µM (inactive)	5.9 µM (inactive)	3.43 µM (inactive)	15.7 µM (inactive)	2.85 µM (inactive)	0.394 µM (active)	3.42 µM (inactive)	–
Cc1c(C)c(C)c(-n2c(=O)n(C)c(=O)n2C(C)(C)C)c(C)c1C	> 100 µM (inactive)	38 µM (inactive)	> 100 µM (inactive)	> 100 µM (inactive)	–	> 100 µM (inactive)	> 100 µM (inactive)	> 100 µM (inactive)	> 100 µM (inactive)	> 100 µM (inactive)	–	> 100 µM (inactive)	> 100 µM (inactive)	> 100 µM (inactive)	> 100 µM (inactive)	> 100 µM (inactive)	> 100 µM (inactive)	85.9 µM (inactive)	> 100 µM (inactive)	> 100 µM (inactive)
O=[N+]([O-])c1ccc(N2CCC(CCCC3CCN(c4ccc([N+](=O)[O-])cc4[N+](=O)[O-])CC3)CC2)c([N+](=O)[O-])c1	14.5 µM (inactive)	13.7 µM (inactive)	21.7 µM (inactive)	–	15.5 µM (inactive)	11 µM (inactive)	34.8 µM (inactive)	16.7 µM (inactive)	18.7 µM (inactive)	23.3 µM (inactive)	25.6 µM (inactive)	18 µM (inactive)	12.9 µM (inactive)	20 µM (inactive)	17.4 µM (inactive)	12.7 µM (inactive)	32.1 µM (inactive)	27 µM (inactive)	19.9 µM (inactive)	17 µM (inactive)
CCOC(=O)/C=C(/C(=O)OCC)n1ccc(=O)n(Cc2cn(CCCCOC(C)=O)nn2)c1=O	> 100 µM (inactive)	16.2 µM (inactive)	> 100 µM (inactive)	> 100 µM (inactive)	> 100 µM (inactive)	6.65 µM (inactive)	> 100 µM (inactive)	> 100 µM (inactive)	> 100 µM (inactive)	50.2 µM (inactive)	32.9 µM (inactive)	> 100 µM (inactive)	> 100 µM (inactive)	> 100 µM (inactive)	> 100 µM (inactive)	> 100 µM (inactive)	> 100 µM (inactive)	> 100 µM (inactive)	32.7 µM (inactive)	–
CCOc1snc(C(Cl)(Cl)Cl)c1Cl	31.7 µM (inactive)	17.3 µM (inactive)	16.6 µM (inactive)	22.4 µM (inactive)	27.4 µM (inactive)	–	18.9 µM (inactive)	19.8 µM (inactive)	22.4 µM (inactive)	13.3 µM (inactive)	9.33 µM (inactive)	14.1 µM (inactive)	27.1 µM (inactive)	17.7 µM (inactive)	21.9 µM (inactive)	25.5 µM (inactive)	23.8 µM (inactive)	14 µM (inactive)	30.3 µM (inactive)	11.7 µM (inactive)
CC(CO)(CO)N1C(=O)C2C3c4ccccc4C(c4ccccc43)C2C1=O (centres undefined)	> 100 µM (inactive)	> 100 µM (inactive)	50.4 µM (inactive)	> 100 µM (inactive)	> 100 µM (inactive)	–	> 100 µM (inactive)	> 100 µM (inactive)	45.8 µM (inactive)	> 100 µM (inactive)	> 100 µM (inactive)	> 100 µM (inactive)	–	> 100 µM (inactive)	> 100 µM (inactive)	> 100 µM (inactive)	> 100 µM (inactive)	> 100 µM (inactive)	> 100 µM (inactive)	64 µM (inactive)
OCCN=C1c2ccccc2C2C(c3ccccc31)C1c3ccccc3C(=NCCO)c3ccccc3C21 (centres undefined)	28.2 µM (inactive)	11.6 µM (inactive)	21.7 µM (inactive)	22.6 µM (inactive)	18.1 µM (inactive)	–	12.6 µM (inactive)	17.1 µM (inactive)	13.8 µM (inactive)	8.91 µM (inactive)	< 0.01 µM (active)	18.2 µM (inactive)	18.8 µM (inactive)	23.2 µM (inactive)	12.9 µM (inactive)	17.5 µM (inactive)	18.6 µM (inactive)	9.48 µM (inactive)	26.1 µM (inactive)	–
CCOC(=O)NC(Nc1cccc(F)c1)(C(F)(F)F)C(F)(F)F	> 100 µM (inactive)	> 100 µM (inactive)	> 100 µM (inactive)	> 100 µM (inactive)	> 100 µM (inactive)	> 100 µM (inactive)	> 100 µM (inactive)	> 100 µM (inactive)	> 100 µM (inactive)	> 100 µM (inactive)	> 100 µM (inactive)	> 100 µM (inactive)	–	> 100 µM (inactive)	> 100 µM (inactive)	> 100 µM (inactive)	> 100 µM (inactive)	7 µM (inactive)	> 100 µM (inactive)	> 100 µM (inactive)
